Laboratory results taken from article PMC11591901 (Biomolecules, 2024).
Where two headings read alike, the source gives them in different places.

What was measured:
[1] = biological target: T1, butyrylcholinesterase from equine serum (eqBChE, E.C. 3.1.1.8) (Equus caballus, UniProt P81908); test: biochemical
T1 construct: butyrylcholinesterase from equine serum (eqBChE, E.C. 3.1.1.8); purchased Sigma Aldrich; host or cells: equine serum

[2] = biological target: Acetylcholinesterase from electric eel (eeAChE, type VI-S) (Electrophorus electricus, UniProt O42275); test: biochemical
Sequence of Acetylcholinesterase from electric eel (eeAChE, type VI-S) (O42275 24-633): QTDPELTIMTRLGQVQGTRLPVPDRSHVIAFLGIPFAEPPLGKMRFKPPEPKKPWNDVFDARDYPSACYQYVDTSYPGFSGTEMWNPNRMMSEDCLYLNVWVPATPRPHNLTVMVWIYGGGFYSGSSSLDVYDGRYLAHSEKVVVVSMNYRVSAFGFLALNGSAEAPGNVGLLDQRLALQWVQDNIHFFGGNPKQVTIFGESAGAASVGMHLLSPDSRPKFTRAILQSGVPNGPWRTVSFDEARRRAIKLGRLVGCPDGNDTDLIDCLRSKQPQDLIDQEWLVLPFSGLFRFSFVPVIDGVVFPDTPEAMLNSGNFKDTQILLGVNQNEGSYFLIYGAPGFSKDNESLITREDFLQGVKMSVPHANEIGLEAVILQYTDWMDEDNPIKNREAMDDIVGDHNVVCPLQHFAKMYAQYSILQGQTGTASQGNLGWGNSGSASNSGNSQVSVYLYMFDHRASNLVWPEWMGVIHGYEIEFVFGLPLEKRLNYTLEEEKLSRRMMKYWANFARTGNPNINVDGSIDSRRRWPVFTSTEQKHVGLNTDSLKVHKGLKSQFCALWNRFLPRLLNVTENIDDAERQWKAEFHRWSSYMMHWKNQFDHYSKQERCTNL

[3] = eqBChE, Ellman assay, triplicate
[4] = eeAChE, Ellman assay, triplicate

T1 sequence (P81908 whole entry): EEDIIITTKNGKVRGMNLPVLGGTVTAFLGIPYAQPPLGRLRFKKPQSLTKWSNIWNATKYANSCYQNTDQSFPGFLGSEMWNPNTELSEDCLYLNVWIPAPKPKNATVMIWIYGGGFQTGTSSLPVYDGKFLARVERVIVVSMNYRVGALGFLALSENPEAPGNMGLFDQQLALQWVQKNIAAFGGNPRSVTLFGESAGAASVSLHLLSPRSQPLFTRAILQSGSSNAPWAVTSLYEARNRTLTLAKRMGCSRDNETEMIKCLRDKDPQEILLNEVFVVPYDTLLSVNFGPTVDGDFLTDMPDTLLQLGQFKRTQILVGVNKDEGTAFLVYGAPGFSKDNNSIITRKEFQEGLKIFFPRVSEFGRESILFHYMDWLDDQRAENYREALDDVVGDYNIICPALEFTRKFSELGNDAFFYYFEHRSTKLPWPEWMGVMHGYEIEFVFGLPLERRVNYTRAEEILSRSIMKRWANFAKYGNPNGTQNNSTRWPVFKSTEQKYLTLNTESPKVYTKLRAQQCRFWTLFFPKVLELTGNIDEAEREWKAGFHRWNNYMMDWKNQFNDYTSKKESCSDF

| Structure (SMILES) | IC50 [1, 3] [µM] | IC50 [2, 4] [µM] | IC50 [1] [µM] | IC50 [2] [µM] |
| --- | --- | --- | --- | --- |
| Cc1ccc(Cn2nnc3ccc4sccc4c32)cc1 [Compound 14, 1-(4-methylbenzyl)-1H-thieno [3’,2’:3,4]benzo [1,2-d][1,2,3]triazole] | 24.3 | 117 | – | – |
| Clc1ccc(Cn2nnc3ccc4sccc4c32)cc1 [Compound 15, 1-(4-chlorobenzyl)-1H-thieno [3’,2’:3,4]benzo [1,2-d][1,2,3]triazole] | 34.6 | 77 | – | – |
| Cc1cccc(Cn2nnc3ccc4sccc4c32)c1 [Compound 16, 1-(3-methylbenzyl)-1H-thieno [3’,2’:3,4]benzo [1,2-d][1,2,3]triazole] | 2.9 | 77.1 | – | – |
| Cc1ccc(Cn2nnc3ccc4sc(C)cc4c32)cc1 [Compound 17, 7-methyl-1-(4-methylbenzyl)-1H-thieno [3’,2’:3,4]benzo [1,2-d][1,2,3]triazole] | 57.6 | > 250 | – | – |
| Cc1cc2c(ccc3nnn(Cc4ccc(Cl)cc4)c32)s1 [Compound 18, 1-(4-chlorobenzyl)-7-methyl-1H-thieno [3’,2’:3,4]benzo [1,2-d][1,2,3]triazole] | 59 | > 100 | – | – |
| Cc1cccc(Cn2nnc3ccc4sc(C)cc4c32)c1 [Compound 19, 7-methyl-1-(3-methylbenzyl)-1H-thieno [3’,2’:3,4]benzo [1,2-d][1,2,3]triazole] | 70.3 | > 250 | – | – |
| COc1cccc(Cn2nnc3ccc4sc(C)cc4c32)c1 [Compound 20, 1-(3-methoxybenzyl)-7-methyl-1H-thieno [3’,2’:3,4]benzo [1,2-d][1,2,3]triazole] | 90.2 | 186 | – | – |
| Cc1cc2c(ccc3nnn(Cc4cccc(F)c4)c32)s1 [Compound 21, 1-(3-fluorobenzyl)-7-methyl-1H-thieno [3’,2’:3,4]benzo [1,2-d][1,2,3]triazole] | 172 | 465 | – | – |
| Cc1ccc(Cn2n[n+](C)c3ccc4sccc4c32)cc1 [Compound 22, 3-methyl-1-(4-methylbenzyl)-1H-thieno [3’,2’:3,4]benzo [1,2-d][1,2,3]triazol-3-ium] | – | – | 1 | 39.2 |
| C[n+]1nn(Cc2ccc(Cl)cc2)c2c3ccsc3ccc21 [Compound 23, 1-(4-chlorobenzyl)-3-methyl-1H-thieno [3’,2’:3,4]benzo [1,2-d][1,2,3]triazol-3-ium] | – | – | 0.47 | 4.4 |
| Cc1cccc(Cn2n[n+](C)c3ccc4sccc4c32)c1 [Compound 24, 3-methyl-1-(3-methylbenzyl)-1H-thieno [3’,2’:3,4]benzo [1,2-d][1,2,3]triazol-3-ium] | 7 | 55.1 | – | – |
| Cc1ccc(Cn2n[n+](C)c3ccc4sc(C)cc4c32)cc1 [Compound 25, 3,7-dimethyl-1-(4-methylbenzyl)-1H-thieno [3’,2’:3,4]benzo [1,2-d][1,2,3]triazol-3-ium] | – | – | 102 | 211 |
| Cc1cc2c(ccc3c2n(Cc2ccc(Cl)cc2)n[n+]3C)s1 [Compound 26, 1-(4-chlorobenzyl)-3,7-dimethyl-1H-thieno [3’,2’:3,4]benzo [1,2-d][1,2,3]triazol-3-ium] | 13.4 | 8.1 | – | – |
| Cc1cccc(Cn2n[n+](C)c3ccc4sc(C)cc4c32)c1 [Compound 27, 3,7-dimethyl-1-(3-methylbenzyl)-1H-thieno [3’,2’:3,4]benzo [1,2-d][1,2,3]triazol-3-ium] | 9.7 | 8.3 | – | – |
| COc1cccc(Cn2n[n+](C)c3ccc4sc(C)cc4c32)c1 [Compound 28, 1-(3-methoxybenzyl)-3,7-dimethyl-1H-thieno [3’,2’:3,4]benzo [1,2-d][1,2,3]triazol-3-ium] | 10.6 | 54.8 | – | – |
| C[n+]1nn(Cc2cccc(Cl)c2)c2c3ccsc3ccc21 [Compound 30, 1-(3-chlorobenzyl)-3-methyl-1H-thieno [3’,2’:3,4]benzo [1,2-d][1,2,3]triazol-3-ium] | – | – | 2.7 | 12.2 |
| C[n+]1nn(Cc2ccco2)c2c3ccsc3ccc21 [Compound 31, 1-(furan-2-ylmethyl)-3-methyl-1H-thieno [3’,2’:3,4]benzo [1,2-d][1,2,3]triazol-3-ium] | 16.1 | 157 | – | – |
